Broadly, the IC50 is the midpoint of a concentration-inhibition curve. A lower IC50 goes with higher potency. The half-life is how long it takes for the measured level to halve. High values mean slow decline, low ones rapid decline.

Molecules are shown by their SMILES.

From ChEMBL document CHEMBL1141148, “Antidiabetic activity of passive nonsteroidal glucocorticoid receptor modulators” (J Med Chem, 2005) come the findings set out here.

The target of data set [1] is T1, Progesterone receptor (Homo sapiens, UniProt P06401).
T1 sequence (P06401 whole entry): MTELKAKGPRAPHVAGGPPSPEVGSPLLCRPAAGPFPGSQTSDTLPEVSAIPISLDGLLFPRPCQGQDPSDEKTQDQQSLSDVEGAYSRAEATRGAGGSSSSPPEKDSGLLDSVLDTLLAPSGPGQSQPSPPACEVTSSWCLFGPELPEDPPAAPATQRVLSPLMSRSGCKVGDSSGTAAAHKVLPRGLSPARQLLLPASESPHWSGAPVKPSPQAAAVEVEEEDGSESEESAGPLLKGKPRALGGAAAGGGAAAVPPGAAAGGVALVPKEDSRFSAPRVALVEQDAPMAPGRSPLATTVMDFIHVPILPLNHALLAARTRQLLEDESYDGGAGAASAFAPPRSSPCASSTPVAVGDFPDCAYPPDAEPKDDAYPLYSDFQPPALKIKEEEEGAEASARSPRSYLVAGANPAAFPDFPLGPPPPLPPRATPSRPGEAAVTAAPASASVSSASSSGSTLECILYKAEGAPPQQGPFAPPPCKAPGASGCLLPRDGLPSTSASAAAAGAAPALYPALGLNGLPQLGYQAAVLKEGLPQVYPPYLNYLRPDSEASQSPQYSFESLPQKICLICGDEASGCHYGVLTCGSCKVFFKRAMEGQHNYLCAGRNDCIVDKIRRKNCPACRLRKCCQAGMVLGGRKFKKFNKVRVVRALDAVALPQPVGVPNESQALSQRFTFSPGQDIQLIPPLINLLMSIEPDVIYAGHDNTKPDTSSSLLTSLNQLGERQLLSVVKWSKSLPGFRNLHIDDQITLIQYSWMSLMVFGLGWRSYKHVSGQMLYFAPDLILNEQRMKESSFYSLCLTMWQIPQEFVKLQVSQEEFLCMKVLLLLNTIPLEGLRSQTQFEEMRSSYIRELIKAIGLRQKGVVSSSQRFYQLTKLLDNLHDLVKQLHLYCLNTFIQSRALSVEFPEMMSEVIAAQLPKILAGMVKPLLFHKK
In words: Inhibition of human progesterone receptor.

The target of data set [2] is T2, Glucocorticoid receptor (Rattus norvegicus, UniProt P06536).
T2 sequence (P06536 whole entry): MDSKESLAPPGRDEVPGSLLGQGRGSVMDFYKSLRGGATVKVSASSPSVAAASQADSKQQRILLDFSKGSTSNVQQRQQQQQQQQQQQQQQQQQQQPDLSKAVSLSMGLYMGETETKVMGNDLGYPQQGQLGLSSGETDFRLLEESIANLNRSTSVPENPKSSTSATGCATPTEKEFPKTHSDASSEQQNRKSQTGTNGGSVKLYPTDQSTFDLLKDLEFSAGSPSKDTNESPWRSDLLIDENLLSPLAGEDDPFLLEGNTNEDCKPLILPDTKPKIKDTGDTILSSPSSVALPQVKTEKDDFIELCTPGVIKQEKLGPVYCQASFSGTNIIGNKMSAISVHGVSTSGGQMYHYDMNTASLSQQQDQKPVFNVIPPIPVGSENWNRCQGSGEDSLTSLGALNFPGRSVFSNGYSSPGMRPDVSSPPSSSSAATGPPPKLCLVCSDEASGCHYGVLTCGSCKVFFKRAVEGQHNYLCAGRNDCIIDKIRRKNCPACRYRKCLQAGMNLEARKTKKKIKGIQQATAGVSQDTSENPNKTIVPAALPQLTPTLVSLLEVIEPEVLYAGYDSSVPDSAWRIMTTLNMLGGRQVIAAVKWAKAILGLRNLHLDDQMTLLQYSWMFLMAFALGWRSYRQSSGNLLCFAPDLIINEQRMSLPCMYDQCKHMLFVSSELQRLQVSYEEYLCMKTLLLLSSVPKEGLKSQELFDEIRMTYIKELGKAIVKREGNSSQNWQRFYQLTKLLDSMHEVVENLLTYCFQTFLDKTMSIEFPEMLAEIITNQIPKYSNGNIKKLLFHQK
Description: Inhibition of [3H]dexamethasone binding to rat glucocorticoid receptor.

Data set [3] has as its target T3, Glucocorticoid receptor (Homo sapiens, UniProt P04150).
T3 sequence (P04150 whole entry): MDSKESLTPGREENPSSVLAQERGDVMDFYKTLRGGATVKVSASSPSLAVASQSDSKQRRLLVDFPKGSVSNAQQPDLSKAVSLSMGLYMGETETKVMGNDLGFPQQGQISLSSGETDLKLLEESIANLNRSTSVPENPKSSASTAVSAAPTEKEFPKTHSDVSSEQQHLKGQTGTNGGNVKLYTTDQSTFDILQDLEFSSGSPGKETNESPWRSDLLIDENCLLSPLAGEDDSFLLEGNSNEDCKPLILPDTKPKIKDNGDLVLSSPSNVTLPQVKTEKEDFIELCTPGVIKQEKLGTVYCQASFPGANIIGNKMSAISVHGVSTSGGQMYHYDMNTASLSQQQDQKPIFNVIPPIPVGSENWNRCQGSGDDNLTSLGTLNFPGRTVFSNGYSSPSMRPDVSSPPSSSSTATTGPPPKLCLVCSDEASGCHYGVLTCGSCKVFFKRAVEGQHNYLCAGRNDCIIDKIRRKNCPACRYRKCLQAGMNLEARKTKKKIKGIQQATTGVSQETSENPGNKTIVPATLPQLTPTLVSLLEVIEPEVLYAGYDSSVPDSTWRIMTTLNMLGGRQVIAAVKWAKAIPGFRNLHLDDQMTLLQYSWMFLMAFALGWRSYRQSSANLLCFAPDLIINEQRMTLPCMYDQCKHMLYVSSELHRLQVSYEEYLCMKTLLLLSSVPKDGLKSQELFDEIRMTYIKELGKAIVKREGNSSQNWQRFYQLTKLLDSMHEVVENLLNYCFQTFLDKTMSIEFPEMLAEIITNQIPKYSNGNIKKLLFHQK
In words: Antagonistic activity against 5 nM Dexamethasone induced glucocorticoid receptor mediated alkaline phosphatase activity. The class given is functional.

Data set [4] in a line: Half life period of the compound in rat hepatocytes was determined. The data set is classed as ADME, cell-based, Liver, Hepatocyte.
The nature of data set [5]: Half life period of the compound in rat liver microsomes was determined. The class given is ADME, Microsome. A general note: Microsomes from liver hold many membrane-bound enzymes, among them those of drug oxidation.
The target of data set [6] is T3, Glucocorticoid receptor.

Take `Cc1c(NS(C)(=O)=O)cccc1N(Cc1ccc(Oc2ccc(F)c(OCC(=O)O)c2)cc1)Cc1ccc(F)cc1F`: the IC50 in data set [1] was determined as 180 nM; in data set [2] it was 0.2 nM; in data set [3], 440 nM; in data set [6], 4.8 nM. Further, the half-life in data set [4] is 6.5 h; in data set [5] it was 4.1 h.

As for `Cc1c(NS(C)(=O)=O)cccc1N(Cc1ccc(Oc2ccc(Cl)c(OCC(=O)O)c2)cc1)Cc1ccc(F)cc1F`, the IC50 in data set [1] worked out at 150 nM; in data set [2], 1.9 nM; in data set [3], 500 nM; in data set [6], 2.6 nM.

On to `Cc1c(NS(C)(=O)=O)cccc1N(Cc1ccccc1)Cc1ccc(Oc2cccc(OCCCC(=O)NCCCC(=O)O)c2)cc1`, for which the IC50 in data set [1] came to 550 nM; in data set [2], 1 nM.

Consider `Cc1c(NS(C)(=O)=O)cccc1N(Cc1ccccc1)Cc1ccc(Oc2ccc(OCC(=O)O)cc2)cc1`, for which the IC50 came to 1700 nM in data set [1] and 2.1 nM in data set [2]. Besides, the half-life was 9.9 h in data set [4] and 4.6 h in data set [5].

Turning to `CC#C[C@]1(O)CC[C@H]2[C@@H]3CCC4=CC(=O)CC[C@]4(Cc4ccc(C)cc4)C3=CC[C@@]21C`, the IC50 in data set [1] came out at 2400 nM; in data set [2], 2.4 nM; in data set [3], 43 nM; in data set [6], 2.4 nM. Moreover, the half-life in data set [4] is less than 0.2 h; in data set [5] it was 0.33 h.
